# Assay results published in PubChem BioAssay AID1996.
# Conditions: buffer; pH 7.4; 200.0 µM
row,solubility kinetic [µg/mL],SMILES
1,1.1,Cc1cccc(/C(N)=N/OC(=O)c2cccc3ccccc23)c1
2,> 47.5,O=C(COC(=O)C1(c2ccccc2)CCCC1)N1CCNC1=O
3,12.5,CN(C)S(=O)(=O)c1ccc(NC(=S)NC(=O)C2CCC2)cc1
4,42.2,Cc1cc(C)c(S(=O)(=O)c2ccccc2Cl)c(=O)[nH]1
5,> 41.3,Cc1cccc(NC(=O)C(C)n2cc([N+](=O)[O-])cn2)n1 (configuration not stated)
6,> 44.6,O=C1OCc2ccc(NC(=O)c3ccccc3C(=O)O)cc21
7,42.8,COc1ccccc1C/C(N)=N/OC(=O)c1cccs1
8,27.4,CCCN(CCO)C1CCN(CCc2ccccc2)CC1
9,1.6,O=C(Nc1ccc(Nc2ccccc2)cc1)c1ccccc1
10,> 36.8,CC(=O)Nc1ccc(C=C(C(C)=O)C(C)=O)cc1
11,44.4,COC(=O)c1ccccc1C(=O)N(c1ccccc1)c1ccccc1
12,2.3,Cc1cc(NC(=O)COC(=O)c2c(C)c(C)c(C)c(C)c2C)no1
13,0.9,O=C(Cn1c(=S)[nH]c2ccccc2c1=O)NCCc1ccccc1
14,2.4,O=c1[nH]c(-c2ccccc2)nc(-c2ccccc2)c1Cl
15,3,Cc1cc(NC(=O)NC(=O)c2ccccc2F)no1
16,19.8,CN(C(=O)COc1ccc(Br)cc1Cl)C1CCCCC1
17,48.6,CN(c1ccccc1C(=O)Nc1ccc2ccccc2c1)S(C)(=O)=O
18,45.9,Cc1ccc(OCC(O)CNC(C)c2ccccc2)cc1C.Cl (configuration not stated)
19,> 56.9,COc1ccc(C2c3ccc(O)cc3Oc3ncn(CCCO)c(=N)c32)cc1 (configuration not stated)
20,2.2,CN(c1ccccc1)S(=O)(=O)c1cccc2ccccc12
21,3.9,COc1ccc(C(=O)NCCSCc2ccc(Cl)cc2)cc1OC
22,> 42,O=C(O)CN1C(=O)C(=O)N(Cc2cccc(F)c2)C1=O
23,7.2,NC(=O)COC(=O)c1ccccc1OCc1ccc(Cl)cc1

row,solubility kinetic [µg/mL],SMILES
1,> 43.3,Cc1cccc(C(=O)NCC(=O)N2CCCCCCC2)c1
2,42.4,NS(=O)(=O)c1cccc(C(=O)NC2CCSc3ccccc32)c1 (configuration not stated)
3,3.4,COc1ccc(C(=O)c2sc(Nc3ccccc3)nc2C)cc1
4,15.1,O=C(Nc1ccc(N2CCOCC2)cc1)c1cccc(S(=O)(=O)N2CCOCC2)c1
5,< 0.4,C=CCn1c(=NC(=O)c2cccs2)sc2cccc(OC)c21
6,> 34.2,Cl.Nc1cnn(Cc2ccc(F)cc2)c1
7,45.4,CC(=O)c1ccc(N2CCN(C(=S)NCc3ccco3)CC2)cc1
8,25.8,Cl.Clc1cccc2c3c([nH]c12)CCNC3
9,42.6,COc1ccc(C(=O)NCCc2c[nH]c3ccccc23)cc1
10,1.8,O=S1(=O)CC2SC(=S)N(Cc3ccccc3)C2C1 (configuration not stated)
11,< 0.2,CCCCc1c(C)[nH]c2nc3ccccc3n2c1=O
12,7.2,COc1ccc(CCNC(=O)COC(=O)c2ccc(S(=O)(=O)N3CCCC3)cc2)cc1OC
13,> 37.2,Cc1cccc(NC(=O)CN2CCOCC2)c1C
14,38.9,O=C(COC(=O)c1cnc(Cl)c(Cl)c1)Nc1cccc(S(=O)(=O)N2CCOCC2)c1
15,34.4,Clc1ccc2c(c1)C(N1CCNCC1)=Nc1ccccc1O2
16,4.6,N#CCOC(=O)/C=C/c1ccc2c(c1)OCO2
17,1,NC(=O)c1sc2nc(-c3ccccc3)ccc2c1N
18,9.1,Cc1ccc(C(C)NC(=S)NC2CCCCC2)c(C)c1 (configuration not stated)
19,4.8,Cc1ccc(OCCCCN2CCc3ccccc3C2)c(C)c1.Cl
20,29.7,COc1cccc(CNC(=O)C(Cc2ccccc2)n2cccc2)c1 (configuration not stated)
21,1.7,COc1ccc(-c2cc(-c3ccc(O)cc3)nc(N)c2C#N)cc1OC
22,6.6,Cc1ccc(NC(=O)COC(=O)C2=COCCO2)c([N+](=O)[O-])c1
23,> 49.1,Cc1ccc(OCC(=O)NCCCNC(=O)c2ccccn2)cc1

row,SMILES,solubility kinetic [µg/mL]
1,CN(C)P(=O)(NC(=O)c1cccn1C)N(C)C,> 38.7
